Measured values: patent US12485161B2, “Compositions comprising sulforaphane or a sulforaphane precursor and a milk thistle extract or powder” (Nutramax Laboratories, Inc., priority 2012, dated 2025)

Legend:
myrosinase = experiment: Conversion of glucoraphanin to sulforaphane in simulated intestinal fluid (Example 5); format: biochemical, broccoli; conditions: 38° C., 0.25 to 1.00 mmol/Liter ascorbic acid, FIG. 4
Description: Conversion of Glucoraphanin to Sulforaphane in the Presence of Simulated Intestinal Fluid. Simulated Intestinal Fluid (SW) powder, a commercially supplied concentrate closely approximating the human intestinal content in terms of composition, pH and ionic strength, was used. The experiment utilized a USP Dissolution Apparatus 2 (paddles), where into six dissolution vessels 500 mL of Simulated Intestinal Fluid was dispensed, along with 150 mg of freeze-dried broccoli sprout powder as a source of myrosinase. […] Aliquots were withdrawn every 15 minutes, and assayed for sulforaphane.

heme oxygenase-1 (HO-1) = conditions: oral administration, mammary epithelium; cited from earlier work
[1] = tested on: NAD(P)H:quinine oxidoreductase (NQO1); conditions: oral administration, mammary epithelium; cited from earlier work
HepG2 cells = experiment: Glutathione levels in HepG2 cells (o-phthalaldehyde fluorescence); format: cell-based, human
Description: The following study was conducted to determine the effect of the combination of sulforaphane and silibinin on glutathione levels. Glutathione plays an important role in the body, as it can serve as an antioxidant, detoxifier, and immunity enhancer. Decreased levels of glutathione can cause a patient to be susceptible to oxidative stress, illness, and cancer. Therefore, an increase in glutathione levels is a beneficial effect.
In the study, the human liver cancer cell line, HepG2 cells were treated with DMSO (vehicle control), sulforaphane (SFN), silibinin (Silib), or the combination of sulforaphane and silibinin, for 24 hours. Cell lysates were collected and glutathione levels were measured using o-phthalaldehyde (OPT) as a fluorescent reagent. FIG. 5 and FIG. 6 show the results of the study.
In Part 1 of the study, the effect of 0.5 μM SFN was compared to various concentrations of silibinin and to the combination of 0.5 μM SFN and silibinin at various concentrations. […] An increase in glutathione levels is a beneficial effect. The results are depicted in FIG. 5.
In Part 2 of the study, the effect of 2 μM SFN was compared to various concentrations of silibinin and to the combination of 2 μM SFN and silibinin at various concentrations. […] An increase in glutathione levels is a beneficial effect to detoxify cells. The results are depicted in FIG. 6.

O=C1O[C@H]([C@@H](O)CO)C(O)=C1O [ascorbic acid]
Yield of sulforaphane versus ascorbic acid concentration (myrosinase): direct correlation between larger yield of sulforaphane and higher concentrations of ascorbic acid

C[S+]([O-])CCCC/C(=N\OS(=O)(=O)O)S[C@@H]1O[C@H](CO)[C@@H](O)[C@H](O)[C@H]1O (stereo partly drawn) [GR, 1-S-[(1E)-5-(methylsulfinyl)-N-(sulfonatooxy)pentanimidoyl]-1-thio-β-D-glucopyranose]
Elevated immunostaining of HO-1 enzyme (heme oxygenase-1 (HO-1)): 4 fold
Increase in NQO1 enzymatic activity [1]: 3 fold

C[S+]([O-])CCCCN=C=S (centres unmarked) [sulforaphane, 1-isothiocyanato-4-methylsulfinylbutane]
Glutathione levels compared to DMSO (vehicle) control (HepG2 cells; Part 1, 24 hours, 0.5 μM SFN, 100, 200, 300 μM Silib, FIG. 5): remained the same
Glutathione levels compared to the control (HepG2 cells; Part 2, 24 hours, 2 μM SFN, 100, 300 μM Silib, FIG. 6): remained the same
